Columns and labels:
spinach leaves [1] = test: SERS depth mapping of pesticide and AuNPs penetration into spinach leaves (Example 2); conditions: 100 mg/L
Method: (§1) Organic grapes and spinach leaves were carefully hand washed as described above for apples before experiment to remove surface contaminants. In order to study pesticide penetration in grapes, the same two washing methods were used as presented above for apples. Grapes treated with each pesticides solution (100 mg/L) were washed with either a 5% acetic acid or 1% NaHCO3 solution. Washing effects were evaluated using the SERS methods and the penetration behaviors of each pesticide were monitored as for apple above. Pesticides penetration experiments on spinach leaves were carried out as described above for apple and grape.
(§2) A DXR Raman microscope (Thermo Fisher Scientific, Madison, Wis., USA) with a 780 nm laser and a 20× long distance microscope objective was used in this study. Each sample was scanned from 400 to 2000 cm^−1 for a 2 s exposure time. For measuring pesticides on both gold slides and fresh produce surfaces, Raman mapping was carried out using a 50 μm slit aperture and 5 mW laser power to maximize the signals. Ten discrete locations were randomly chosen on each sample for analysis. For penetration studies, SERS depth mapping images were obtained using a 50 μm pinhole aperture and 1 mW laser power to control the confocal depths using a scanning depth of 300 μm. Each depth scanning vertical to produce surface was randomly selected in apple peel, grape peel or spinach leaf with an area of 100 μm×300 μm. The step size of the depth mapping was 20 μm and one image contained 75 scanning spots. Raman images were integrated based on the characteristic peaks in the pesticide spectra using the Atlμs Function in the OMINCS software (Thermo Fisher Scientific). Statistical analysis was conducted using SPSS Statistics 22 software (IBM Corporation, Armonk, N.Y., USA). The differences among results were calculated using an analysis of variance (ANOVA) and a post hoc Duncan test with a confidence level of 95%.

grape = test: SERS depth mapping of pesticide and AuNPs penetration into grapes (Example 2); conditions: 100 mg/L
Method: as §1, §2

apple = test: SERS depth mapping of pesticide and AuNPs penetration into apples (Example 2); conditions: 100 mg/L
Method: Organic apples were carefully hand washed with ultrapure water for 3 min and air-dried before experiment to remove surface contaminants. Then a 5 μL aliquot from a 100 mg/L solution of each pesticide was pipetted onto the apple surface. After air-drying the pesticides, apple peels with ˜2.0×2.0 cm^2 area were cut from each treated apple using a sharp knife. To determine pesticide penetration with penetrative AuNPs, any interference caused by pesticide residues on the apple surface were removed by washing. Two different washing methods were investigated using either an acetic acid- or NaHCO3-containing solution. Each peel was immersed into 20 mL of either a 5% acetic acid or a 1% NaHCO3 solution for different times and gently rinsed with 200 mL of deionized water for 10 s, respectively. All washed samples were air-dried at room temperature for 10 min before being treated with AuNPs. After drying AuNPs for 1 h, SERS detection was performed on that area to evaluate washing effects. Ten discrete locations were randomly chosen on each apple peel sample and scanned. Similar samples were prepared without either washing method and were scanned as above for comparisons.
Following drying, the surface residues from each applied pesticide were washed off using either the NaHCO3 or acetic acid solution and a 5 μL aliquot of the 250 mg/L AuNPs solution was added as described above. After 1 h of drying, SERS depth mapping images were obtained using the confocal Raman instrument.
A DXR Raman microscope (Thermo Fisher Scientific, Madison, Wis., USA) with a 780 nm laser and a 20× long distance microscope objective was used in this study. Each sample was scanned from 400 to 2000 cm^−1 for a 2 s exposure time. […] Ten discrete locations were randomly chosen on each sample for analysis. For penetration studies, SERS depth mapping images were obtained using a 50 μm pinhole aperture and 1 mW laser power to control the confocal depths using a scanning depth of 300 μm. […] The step size of the depth mapping was 20 μm and one image contained 75 scanning spots. Raman images were integrated based on the characteristic peaks in the pesticide spectra using the Atlμs Function in the OMINCS software (Thermo Fisher Scientific). […] The differences among results were calculated using an analysis of variance (ANOVA) and a post hoc Duncan test with a confidence level of 95%.

spinach leaves [2] = test: SERS depth mapping of pesticide and AuNPs penetration into spinach leaves (Example 1); conditions: 20 ppm
Method: These leaves were carefully washed with ultrapure water and dried before experimentation. […] A volume of 50 μL of each solution was then mixed with 50 μL of a 250 ppm 50 nm AuNPs solution for 1 min. at room temperature to ensure complete pesticide complexation with AuNPs through Au-thiol bond. 5 μL of each of the pre-prepared pesticide solution were then pipetted onto spinach leaves situated on a glass slide and air-dried in a fume hood for 30 min. […] All controls were air-dried in a fume hood as above. For evaluation of feasibility of Raman detection of pesticides on spinach leaves, 5 μL of the pre-prepared pesticide solution and AuNPs solution without pesticide were also dropped onto a gold slide and dried for 30 min in a hood for comparisons. Raman spectra were collected individually for all treatments.
After 1 h, bright field light scattering images and SERS mapping images were collected from all samples.
In order to remove any interference caused by pesticide residues on the spinach leaf surface, different washing methods were investigated. […] Then each leaf was immersed into 20 mL of deionized water or 20 mL of a 10 mg/mL of NaHCO3 solution. For the water washing method, each leaf was submerged into water for either 10 or 60 min. For the NaHCO3 washing method, each leaf was submerged into the NaHCO3 solution for 30, 60, 90, or 120 s and then gently rinsed with 500 mL of deionized water for 30 s, respectively. All washed leaf samples were air-dried at room temperature for 30 min before being treated with AuNPs. […]
After 1 h for drying, SERS depth mapping images were obtained using the confocal Raman instrument. Similar samples without washing were likewise measured for comparison purposes.
To study accurate systemic pesticide penetration, different washing methods were also used to remove surface thiabendazole residues. […] Surface thiabendazole residues were then analyzed by pipetting 5 μL of a 250 ppm AuNP solution onto the same leaf area where thiabendazole had been placed prior to washing and determining SERS depth mapping images by Raman instrument as before. […]

live basil leaves = test: SERS depth mapping of pesticide and AuNPs penetration into live basil leaves (Example 3)
Method: (§3) A 5 μL aliquot of the mixture was pipetted onto harvested leaves or onto the live leaves on the plant. After air drying for 30 min, SERS depth mapping images were obtained using a confocal Raman instrument as detailed below.
For the study of pesticide penetration into live basil leaves, 36 intact leaves (approximately 0.2 g per leaf) were selected from six live plants as the experimental target (6 leaves per plant) and carefully rinsed with 450 mL ultrapure water for 30 s and air-dried before the experiment to remove surface contaminants like dust. After rinsing, the clean leaves were used to study of pesticide penetration. […] Some of the pesticides might penetrate into leaves from the surface during the periods. After pesticide penetrated into leaves for different time periods, ultrapure water with flow rate of 15 mL/s was utilized to gently rinse the surface of leaves (Step 2). Different rinsing times were then investigated to complete removal of each pesticide residue on the surface. After rinsing of surface pesticide residues, all leaf samples were air-dried at room temperature for 30 min. […] The video camera in the Raman microscope was used to record the position on the leaves and help to find the same area for AuNPs deposition. After AuNPs treatment for drying 30 min, SERS detection was performed on that area using the confocal Raman instrument. Each treatment was performed twice.
For penetration studies, SERS depth mapping images were obtained using a 50 μm pinhole aperture and 3 mW laser power to control the confocal depth using a scanning depth of 300 μm. Each depth area (100 μm×300 μm) was chosen from the treated spot on the leaf distant from a gland because the gland is the cavity, not a flat surface. The step size of the depth mapping was 20 μm and one image contained 75 scanning spots. Raman images were integrated based on the characteristic peaks in the pesticide spectra using the Atlμs Function in the OMINCS software (Thermo Fisher Scientific). There was one spot on each leaf and one depth area was selected from each spot. For each pesticide depth mapping experiment, there were six duplicates with six leaves coming from three different plants (2 leaves from each plant).
Pesticide penetration was investigated using both intact and damaged leaves on live plants. Damaged leaves were prepared using a sharp knife to scratch the top surface of intact leaves. Each of the damaged leaves had 20 scrapes on each leaf and the distance between each scrape is 0.2 cm.

harvested basil leaves = test: SERS depth mapping of pesticide and AuNPs penetration into harvested basil leaves (Example 3); conditions: 10 mg/L
Method: as §3
For the study of the pesticides penetration on harvested basil leaves, 36 intact leaves (0.2 g per leaf) were first cut off from petiole on live plants using a sharp knife and carefully rinsed as described above for live leaves. During the experiment, the stems of each harvested leaf were immersed into water to keep the leaf fresh. To study pesticide penetration into harvested leaves, the same rinsing method and pesticides penetration protocols were carried out as described above for live leaves.
For penetration studies, SERS depth mapping images were obtained using a 50 μm pinhole aperture and 3 mW laser power to control the confocal depth using a scanning depth of 300 μm. Each depth area (100 μm×300 μm) was chosen from the treated spot on the leaf distant from a gland because the gland is the cavity, not a flat surface. The step size of the depth mapping was 20 μm and one image contained 75 scanning spots. […] The differences among results were calculated using an independent sample T-test or analysis of variance (ANOVA) and a post hoc Duncan test with a confidence level of 95%.

[3] = 48 h exposure, surface residues washed off

SMILES: COP(=S)(OC)SCN1C(=O)c2ccccc2C1=O [phosmet, O,O-dimethyl S-Phthalimido Methyl Phosphorodithioate]
- Exposure time at which pesticide was first detected (spinach leaves [1]): 24 h
- Penetration depth (spinach leaves [1]; [3]): 70 μm
- Exposure time at which penetration was first observed (grape): 48 h
- Penetration depth (grape; [3]): about 20 μm
- Exposure time at which pesticide was first detected (apple): 6 h
- Penetration depth (apple; [3]): ~55 μm

SMILES: C/C(=N\C#N)N(C)Cc1ccc(Cl)nc1 [acetamiprid, (E)-N-[(6-chloro-3-pyridyl)methyl]-N′-cyano-N-methylethanimidamide]
- Penetration depth (spinach leaves [1]; [3]): 90 μm
- Exposure time at which penetration was first apparent (grape): 30 min
- Penetration depth (grape; [3]): about 75 μm
- Exposure time at which penetration was first observed (apple): 30 min
- Penetration depth (apple; [3]): ~140 μm

SMILES: c1ccc2[nH]c(-c3cscn3)nc2c1 [thiabendazole, 2-(4-thiazolyl)-1H-benzimidazole]
- Earliest time of detecting pesticide inside leaves (spinach leaves [2]; surface residues washed off with NaHCO3): 6 h
- Penetration depth in depth mapping images with increasing exposure time (spinach leaves [2]; washed): approximately 150 μm
- Penetration depth from scans parallel to leaf surface at different depths (spinach leaves [2]; washed, 2 days exposure): approximately 210 μm
- Exposure time at which pesticide was first detected (spinach leaves [1]): 0.5 h
- Penetration depth (spinach leaves [1]; 30 min): 100 μm
- Penetration depth (spinach leaves [1]; 24 h): ~160 μm
- Penetration depth (spinach leaves [1]; [3]): ~220 μm
- Exposure time at which penetration was first apparent (grape): 30 min
- Penetration depth (grape; 24 h): about 36 μm
- Penetration depth (grape; [3]): about 55 μm
- Exposure time at which penetration was first observed (apple): 30 min
- Penetration depth (apple; 24 h): about 140 μm
- Penetration depth (apple; [3]): approximately 160 μm
- Exposure time at which penetration was first seen (live basil leaves; 10 mg/L, live leaves): 30 min
- Penetration depth (live basil leaves; 10 mg/L, live leaves, 48 h after exposure, surface rinsed): ~225 μm
- Penetration depth (live basil leaves; damaged (knife-scratched) leaves on live plants): 80 μm
- Penetration depth (live basil leaves; intact leaves on live plants): 170 μm
- Penetration depth (live basil leaves; large (old, 45 days) leaves, 24 h exposure): 165 μm
- Penetration depth (live basil leaves; small (young, 15 days) leaves, 24 h exposure): 95 μm
- Exposure time at which penetration was first seen (harvested basil leaves): 30 min
- Penetration depth (harvested basil leaves; 48 h after exposure, surface rinsed): approximately 180 μm

Source: patent US10921257B2, “Method and system of pesticide detection using SERS” (priority 2016, dated 2021)
